Experimental findings from ChEMBL document CHEMBL1201862, “PubChem BioAssay data set” (2004) are described below.

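Five compound concentrations were applied to cells in 96-well plates for 48 hours; endpoints were derived by simple linear interpolation of the resulting dose-response curve. GI50: concentration for 50% inhibition of growth.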 The source made the active and inactive calls. Cut-off read from the data, not from the text of the source: active = GI50 up to about 1.1 µM and inactive = higher.

Test systems include CAKI-1; MOLT-4; NCI-H226; DLD-1; HCT-116; A549; UO-31; SNB-78; M19-MEL; HT-29; U-251; MCF7; KM-20L2; SF-295.
Holding throughout (assay): NCI tumour cell line growth inhibition, 48 h

As to `COc1cc(C2c3cc4c(cc3[C@@H](Nc3ccccc3)C3COC(=O)[C@H]23)OCO4)cc(OC)c1O` (some centres undefined), the GI50 in the assay with CAKI-1 is 134 nM (active); in the assay with MOLT-4, < 10 nM (active); in the assay on NCI-H226 it was 280 nM (active); with DLD-1, 1660 nM (inactive); in the assay with HCT-116, 391 nM (active); in the assay with A549, 15.6 nM (active). Besides, the GI50 in the assay on UO-31 was 531 nM (active); with SNB-78, 2370 nM (inactive); with M19-MEL, 1550 nM (inactive); in the assay on HT-29 it was 1230 nM (inactive); in the assay on U-251 it was 391 nM (active); with MCF7, 71.5 nM (active). The GI50 in the assay with KM-20L2 is 2100 nM (inactive); in the assay with SF-295, 171 nM (active).
